Source: patent EP4818168A1, “FUSED RING COMPOUND, PHARMACEUTICAL COMPOSITION THEREOF AND USE THEREOF” (priority 2023, dated 2025)
Like-named read-outs stand apart in the source and are kept apart here.

Tests used:
[1] = target: T1, AURKA (Homo sapiens, UniProt O14965); format: cell-based
T1 construct: endogenous in cells; host or cells: Jurkat cells
T1 sequence (O14965 1-403): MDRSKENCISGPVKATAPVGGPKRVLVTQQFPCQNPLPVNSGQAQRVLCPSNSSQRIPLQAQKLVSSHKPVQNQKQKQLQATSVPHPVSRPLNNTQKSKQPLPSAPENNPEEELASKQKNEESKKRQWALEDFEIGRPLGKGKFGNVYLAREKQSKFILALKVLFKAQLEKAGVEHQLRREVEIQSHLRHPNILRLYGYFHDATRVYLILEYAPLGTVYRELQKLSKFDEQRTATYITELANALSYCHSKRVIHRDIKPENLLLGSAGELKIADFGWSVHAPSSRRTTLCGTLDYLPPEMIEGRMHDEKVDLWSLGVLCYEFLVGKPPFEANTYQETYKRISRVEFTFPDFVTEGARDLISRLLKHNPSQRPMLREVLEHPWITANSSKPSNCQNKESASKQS
Summary of the method: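 AURKA degradation read by western blot: band signal, fluorescent or chemiluminescent, curve-fitted to derive DC50. Cells were Jurkat, plated at 1×10^6 cells/500 µL with compound, then lysed and blotted onto nitrocellulose, primary antibody overnight at 4°C.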

[2] = test system: H82 cells; experiment: cells; format: cell-based; settings: Homo sapiens
Summary of the method: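 After 6 days' compound treatment at 37 °C (final DMSO 0.1%, RPMI1640/10% FBS), viable H82 cells were quantified by ATP-dependent CellTiter-Glo luminescence. Remaining activity was calculated against DMSO and medium wells, and a sigmoidal fit gave IC50.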

[3] = 100 nM compound, Jurkat cells, 24 h, Table 2
[4] = 1 µM compound, Jurkat cells, 24 h, Table 2
[5] = NCI-H82, H82 cells, 4000 cells/well, CellTiter-Glo, read-out: IC50 in H82 Cells
[6] = NCI-H82, read-out: IC50 in H82 Cells

SMILES | Percentage of AURKA Degradation Induced by 100 nM Compound in Jurkat Cells [1, 3] | Percentage of AURKA Degradation Induced by 1 µM Compound in Jurkat Cells [1, 4] | IC50 [2, 5] [nM] | Percentage of AURKA Degradation Induced by 100 nM Compound in Jurkat Cells [1] | Percentage of AURKA Degradation Induced by 1 µM Compound in Jurkat Cells [1] | IC50 [2, 6] [nM]
N#Cc1cc(N2CCN(C(=O)C3CCN(c4ccc(Nc5ncc6c(n5)-c5ccc(Cl)cc5C(c5c(F)cccc5F)=NC6)cc4)CC3)CC2)ccc1N1CCC(=O)NC1=O [Compound A304] | +++ (Degradation > 70%) | +++ (Degradation > 70%) | < 1000 | – | – | –
N#Cc1ccc2c(c1)C(c1c(F)cccc1F)=NCc1cnc(Nc3ccc(N4CCN(C5CCN(c6ccc(N7CCC(=O)NC7=O)cn6)CC5)CC4=O)cc3)nc1-2 [Compound A305] | +++ (Degradation > 70%) | +++ (Degradation > 70%) | < 1000 | – | – | –
O=C1CCN(c2ccc(N3CCC(N4CCN(C56CC(Nc7ncc8c(n7)-c7ccc(Cl)cc7C(c7c(F)cccc7F)=NC8)(C5)C6)C(=O)C4)CC3)nc2)C(=O)N1 [Compound A306] | ++ (30% < Degradation ≤ 70%) | +++ (Degradation > 70%) | < 1000 | – | – | –
O=C1CCN(c2ccc(N3CCN(C(=O)C4CN(c5ccc(Nc6ncc7c(n6)-c6ccc(Cl)cc6C(c6c(F)cccc6F)=NC7)cc5)CCO4)CC3)nc2)C(=O)N1 (stereo not drawn) [Compound A308] | +++ (Degradation > 70%) | +++ (Degradation > 70%) | < 1000 | – | – | –
CN1CCN(c2ccc(N3CCC(=O)NC3=O)cn2)CC1C(=O)N1CCN(c2ccc(Nc3ncc4c(n3)-c3ccc(Cl)cc3C(c3c(F)cccc3F)=NC4)cc2)CC1 (stereo not drawn) [Compound A309] | ++ (30% < Degradation ≤ 70%) | ++ (30% < Degradation ≤ 70%) | < 1000 | – | – | –
O=C1CCN(c2ccc(N3CCOC(CN4CCN(C56CC(Nc7ncc8c(n7)-c7ccc(Cl)cc7C(c7c(F)cccc7F)=NC8)(C5)C6)C(=O)C4)C3)nc2)C(=O)N1 (stereo not drawn) [Compound A311] | +++ (Degradation > 70%) | +++ (Degradation > 70%) | < 1000 | – | – | –
CC1(C)CN(C23CC(Nc4ncc5c(n4)-c4ccc(Cl)cc4C(c4c(F)cccc4F)=NC5)(C2)C3)C(=O)CN1CC1CCN(c2ccc(N3CCC(=O)NC3=O)cn2)CC1 [Compound A316] | – | – | – | ++ (key: +: Degradation ≤ 30%; ++: 30% < Degradation ≤ 70%; +++: Degradation > 70%) | ++ (key: +: Degradation ≤ 30%; ++: 30% < Degradation ≤ 70%; +++: Degradation > 70%) | < 1000
N#Cc1ccc2c(c1)C(c1c(F)cccc1F)=NCc1cnc(Nc3ccc(N4CC(F)(CN5CCN(c6ccc(N7CCC(=O)NC7=O)cn6)CC5)C4)cc3)nc1-2 [Compound A319] | +++ (Degradation > 70%) | +++ (Degradation > 70%) | < 1000 | – | – | –
O=C1CCN(c2ccc(N3CCC(C(=O)N4CCN(c5ccc(Nc6ncc7c(n6)-c6ccc(Cl)cc6C(c6nccs6)=NC7)cc5)CC4)CC3)nc2)C(=O)N1 [Compound A320] | +++ (Degradation > 70%) | +++ (Degradation > 70%) | < 1000 | – | – | –
N#Cc1ccc2c(c1)C(c1nccs1)=NCc1cnc(Nc3ccc(N4CCN(C5CCN(c6ccc(N7CCC(=O)NC7=O)cn6)CC5)CC4=O)cc3)nc1-2 [Compound A322] | +++ (Degradation > 70%) | +++ (Degradation > 70%) | < 1000 | – | – | –
N#Cc1nc(N2CCN(C(=O)C3CCN(c4ccc(Nc5ncc6c(n5)-c5ccc(Cl)cc5C(c5c(F)cccc5F)=NC6)cc4)CC3)CC2)ccc1N1CCC(=O)NC1=O [Compound A323] | +++ (Degradation > 70%) | +++ (Degradation > 70%) | < 1000 | – | – | –
O=C1CCN(c2ccc(N3CCN(C(=O)[C@@H]4CN(c5ccc(Nc6ncc7c(n6)-c6ccc(Cl)cc6C(c6c(F)cccc6F)=NC7)cc5)CCO4)CC3)nc2)C(=O)N1 [Compound A324] | +++ (Degradation > 70%) | +++ (Degradation > 70%) | < 1000 | – | – | –
O=C1CCN(c2ccc(N3CCN(C(=O)[C@H]4CN(c5ccc(Nc6ncc7c(n6)-c6ccc(Cl)cc6C(c6c(F)cccc6F)=NC7)cc5)CCO4)CC3)nc2)C(=O)N1 [Compound A325] | +++ (Degradation > 70%) | +++ (Degradation > 70%) | < 1000 | – | – | –
N#Cc1cc(N2CCC(=O)NC2=O)cnc1N1CCN(C(=O)C2CCN(c3ccc(Nc4ncc5c(n4)-c4ccc(Cl)cc4C(c4c(F)cccc4F)=NC5)cc3)CC2)CC1 [Compound A326] | +++ (Degradation > 70%) | +++ (Degradation > 70%) | < 1000 | – | – | –
O=C1CCN(c2ccc(N3CC4(CC(N5CCN(c6ccc(Nc7ncc8c(n7)-c7ccc(Cl)cc7C(c7c(F)cccc7F)=NC8)cc6)C(=O)C5)CO4)C3)nc2)C(=O)N1 (stereo not drawn) [Compound A329] | +++ (Degradation > 70%) | +++ (Degradation > 70%) | < 1000 | – | – | –
O=C1CCN(c2ccc(N3CC4(CC(N5CCN(c6ccc(Nc7ncc8c(n7)-c7ccc(Cl)cc7C(c7nccs7)=NC8)cc6)C(=O)C5)CO4)C3)nc2)C(=O)N1 (stereo not drawn) [Compound A330] | +++ (Degradation > 70%) | +++ (Degradation > 70%) | < 1000 | – | – | –
NC(=O)c1cc(N2CCN(C(=O)C3CCN(c4ccc(Nc5ncc6c(n5)-c5ccc(Cl)cc5C(c5c(F)cccc5F)=NC6)cc4)CC3)CC2)ncc1N1CCC(=O)NC1=O [Compound A334] | + (Degradation ≤ 30%) | + (Degradation ≤ 30%) | < 1000 | – | – | –
O=C1CCN(c2ccc(N3CCC4(CC3)CC(N3CCN(c5ccc(Nc6ncc7c(n6)-c6ccc(Cl)cc6C(c6c(F)cccc6F)=NC7)cc5)C(=O)C3)CO4)nc2)C(=O)N1 (stereo not drawn) [Compound A336] | +++ (Degradation > 70%) | +++ (Degradation > 70%) | < 1000 | – | – | –
O=C1CCN(c2ccc(N3CCC4(CC3)CC(N3CCN(c5ccc(Nc6ncc7c(n6)-c6ccc(Cl)cc6C(c6nccs6)=NC7)cc5)C(=O)C3)CO4)nc2)C(=O)N1 (stereo not drawn) [Compound A337] | +++ (Degradation > 70%) | +++ (Degradation > 70%) | < 1000 | – | – | –
O=C1CCN(c2ccc(N3CCC4(CC3)CC(N3CCN(C56CC(Nc7ncc8c(n7)-c7ccc(Cl)cc7C(c7nccs7)=NC8)(C5)C6)C(=O)C3)CO4)nc2)C(=O)N1 (stereo not drawn) [Compound A339] | +++ (Degradation > 70%) | +++ (Degradation > 70%) | < 1000 | – | – | –
O=C1CCN(c2ccc(N3CCC4(CC3)C[C@@H](N3CCN(c5ccc(Nc6ncc7c(n6)-c6ccc(Cl)cc6C(c6c(F)cccc6F)=NC7)cc5)CC3)CO4)nc2)C(=O)N1 [Compound A341] | +++ (Degradation > 70%) | +++ (Degradation > 70%) | – | – | – | < 1000
O=C1CCN(c2ccc(N3CCC4(CC3)C[C@H](N3CCN(c5ccc(Nc6ncc7c(n6)-c6ccc(Cl)cc6C(c6c(F)cccc6F)=NC7)cc5)CC3)CO4)nc2)C(=O)N1 [Compound A342] | +++ (Degradation > 70%) | +++ (Degradation > 70%) | – | – | – | < 1000
